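Step 1: Grow cells in 96-well plates. Step 2: Expose to compound for 48 hours at 5 concentrations. Step 3: Interpolate endpoints linearly; if unreached, use highest concentration. The concentration for 50% growth inhibition is given as GI50. TGI: total growth inhibition.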
Experiments:
Experiment in all cases: inhibition of tumour cell growth, NCI panel, 48 h
HL-60(TB) leukemia = system: HL-60(TB) leukemia
UACC-62 melanoma = system: UACC-62 melanoma
DU-145 prostate = system: DU-145 prostate
KM12 colon = system: KM12 colon
HCT-116 colon = system: HCT-116 colon
UACC-257 melanoma = system: UACC-257 melanoma
SF-268 CNS = system: SF-268 CNS
HCC-2998 colon = system: HCC-2998 colon
NCI-H23 lung = system: NCI-H23 lung
MDA-MB-231 breast = system: MDA-MB-231 breast
PC-3 prostate = system: PC-3 prostate
SNB-75 CNS = system: SNB-75 CNS
SNB-19 CNS = system: SNB-19 CNS
RXF 393 renal = system: RXF 393 renal
A498 renal = system: A498 renal
NCI-H522 lung = system: NCI-H522 lung
RPMI-8226 leukemia = system: RPMI-8226 leukemia
HCT-15 colon = system: HCT-15 colon
SK-MEL-28 melanoma = system: SK-MEL-28 melanoma
TK-10 renal = system: TK-10 renal
NCI-H226 lung = system: NCI-H226 lung
786-0 renal = system: 786-0 renal
MDA-MB-435 = system: MDA-MB-435
SK-OV-3 ovarian = system: SK-OV-3 ovarian
T-47D breast = system: T-47D breast
HT29 colon = system: HT29 colon
COLO 205 colon = system: COLO 205 colon
M14 melanoma = system: M14 melanoma
NCI/ADR-RES ovarian = system: NCI/ADR-RES ovarian
OVCAR-4 ovarian = system: OVCAR-4 ovarian
SW-620 colon = system: SW-620 colon
HS 578T breast = system: HS 578T breast
NCI-H460 lung = system: NCI-H460 lung
CAKI-1 renal = system: CAKI-1 renal
A549 NSCLC = system: A549 NSCLC
OVCAR-8 ovarian = system: OVCAR-8 ovarian
U251 CNS = system: U251 CNS
IGROV1 ovarian = system: IGROV1 ovarian
BT-549 breast = system: BT-549 breast
SR leukemia = system: SR leukemia
CCRF-CEM leukemia = system: CCRF-CEM leukemia
HOP-62 NSCLC = system: HOP-62 NSCLC
HOP-92 NSCLC = system: HOP-92 NSCLC
SK-MEL-5 melanoma = system: SK-MEL-5 melanoma
SF-295 CNS = system: SF-295 CNS
ACHN renal = system: ACHN renal
SK-MEL-2 melanoma = system: SK-MEL-2 melanoma
SF-539 CNS = system: SF-539 CNS
UO-31 renal = system: UO-31 renal
OVCAR-5 ovarian = system: OVCAR-5 ovarian
MOLT-4 leukemia = system: MOLT-4 leukemia
MCF7 breast = system: MCF7 breast
EKVX NSCLC = system: EKVX NSCLC
MALME-3M melanoma = system: MALME-3M melanoma
SN12C renal = system: SN12C renal
LOX IMVI melanoma = system: LOX IMVI melanoma
K-562 leukemia = system: K-562 leukemia

Work on `C=CCN(C)S(=O)(=O)/N=C1\NC(=O)NC1=C(Cl)Cl` yielded a GI50 (HL-60(TB) leukemia) of 2.06 µM, a TGI (HL-60(TB) leukemia) of 5.31 µM and a GI50 (UACC-62 melanoma) of 1.75 µM. It also gave a TGI (UACC-62 melanoma) of 3.39 µM, a GI50 (DU-145 prostate) of 4.08 µM and a TGI (DU-145 prostate) of 13.6 µM. It also gave a GI50 (KM12 colon) of 0.437 µM, a TGI (KM12 colon) of 25.6 µM and a GI50 (HCT-116 colon) of 1.84 µM. For the same molecule, the TGI (HCT-116 colon) was 3.55 µM, the GI50 (UACC-257 melanoma) was 3.56 µM and the TGI (UACC-257 melanoma) was 17 µM. The GI50 (SF-268 CNS) was 3.17 µM, the TGI (SF-268 CNS) was 10.7 µM and the GI50 (HCC-2998 colon) was 1.76 µM. It also gave a TGI (HCC-2998 colon) of 3.43 µM, a GI50 (NCI-H23 lung) of 1.85 µM and a TGI (NCI-H23 lung) of 3.6 µM. It also gave a GI50 (MDA-MB-231 breast) of 1.86 µM, a TGI (MDA-MB-231 breast) of 3.42 µM and a GI50 (PC-3 prostate) of 2.35 µM. It also gave a TGI (PC-3 prostate) of 6.2 µM, a GI50 (SNB-75 CNS) of 1.82 µM and a TGI (SNB-75 CNS) of 13.1 µM. For the same molecule, the GI50 (SNB-19 CNS) was 2.88 µM, the TGI (SNB-19 CNS) was 9.29 µM and the GI50 (RXF 393 renal) was 1.7 µM. For the same molecule, the TGI (RXF 393 renal) was 3.37 µM, the GI50 (A498 renal) was 12 µM and the TGI (A498 renal) was 24.6 µM. It also gave a GI50 (NCI-H522 lung) of 1.97 µM, a TGI (NCI-H522 lung) of 4.16 µM and a GI50 (RPMI-8226 leukemia) of 0.404 µM. For the same molecule, the TGI (RPMI-8226 leukemia) was 9.84 µM, the GI50 (HCT-15 colon) was 1.63 µM and the TGI (HCT-15 colon) was 3.22 µM. For the same molecule, the GI50 (SK-MEL-28 melanoma) was 1.78 µM, the TGI (SK-MEL-28 melanoma) was 3.26 µM and the GI50 (TK-10 renal) was 9.07 µM. The TGI (TK-10 renal) was over 100 µM, the GI50 (NCI-H226 lung) was 2.09 µM and the TGI (NCI-H226 lung) was 4.63 µM. For the same molecule, the GI50 (786-0 renal) was 2.39 µM, the TGI (786-0 renal) was 5.79 µM and the GI50 (MDA-MB-435) was 1.93 µM. For the same molecule, the TGI (MDA-MB-435) was 3.86 µM, the GI50 (SK-OV-3 ovarian) was 17 µM and the TGI (SK-OV-3 ovarian) was 31 µM. It also gave a GI50 (T-47D breast) of 3.25 µM, a TGI (T-47D breast) of over 100 µM and a GI50 (HT29 colon) of 2.15 µM. For the same molecule, the TGI (HT29 colon) was 4.87 µM, the GI50 (COLO 205 colon) was 2.02 µM and the TGI (COLO 205 colon) was 4.37 µM. It also gave a GI50 (M14 melanoma) of 1.89 µM, a TGI (M14 melanoma) of 3.73 µM and a GI50 (NCI/ADR-RES ovarian) of 2.12 µM. It also gave a TGI (NCI/ADR-RES ovarian) of 4.91 µM, a GI50 (OVCAR-4 ovarian) of 1.82 µM and a TGI (OVCAR-4 ovarian) of 3.36 µM. For the same molecule, the GI50 (SW-620 colon) was 1.9 µM, the TGI (SW-620 colon) was 3.72 µM and the GI50 (HS 578T breast) was 3.64 µM. For the same molecule, the TGI (HS 578T breast) was 30.1 µM, the GI50 (NCI-H460 lung) was 2.71 µM and the TGI (NCI-H460 lung) was 7.1 µM. The GI50 (CAKI-1 renal) was 1.72 µM, the TGI (CAKI-1 renal) was 3.15 µM and the GI50 (A549 NSCLC) was 5.27 µM. For the same molecule, the TGI (A549 NSCLC) was 24 µM, the GI50 (OVCAR-8 ovarian) was 2.33 µM and the TGI (OVCAR-8 ovarian) was 5.69 µM. It also gave a GI50 (U251 CNS) of 1.87 µM, a TGI (U251 CNS) of 4.05 µM and a GI50 (IGROV1 ovarian) of 1.84 µM. The TGI (IGROV1 ovarian) was 3.65 µM, the GI50 (BT-549 breast) was 2.1 µM and the TGI (BT-549 breast) was 4.49 µM. It also gave a GI50 (SR leukemia) of 0.693 µM, a TGI (SR leukemia) of 6.68 µM and a GI50 (CCRF-CEM leukemia) of 1.94 µM. The TGI (CCRF-CEM leukemia) was 4.68 µM, the GI50 (HOP-62 NSCLC) was 3.28 µM and the TGI (HOP-62 NSCLC) was 14.4 µM. The GI50 (HOP-92 NSCLC) was 1.76 µM, the TGI (HOP-92 NSCLC) was 3.4 µM and the GI50 (SK-MEL-5 melanoma) was 2 µM. For the same molecule, the TGI (SK-MEL-5 melanoma) was 4.21 µM, the GI50 (SF-295 CNS) was 13.6 µM and the TGI (SF-295 CNS) was 26.7 µM. It also gave a GI50 (ACHN renal) of 1.77 µM, a TGI (ACHN renal) of 3.18 µM and a GI50 (SK-MEL-2 melanoma) of 2.9 µM. The TGI (SK-MEL-2 melanoma) was 7.76 µM, the GI50 (SF-539 CNS) was 1.79 µM and the TGI (SF-539 CNS) was 3.3 µM. For the same molecule, the GI50 (UO-31 renal) was 2.82 µM, the TGI (UO-31 renal) was 11.9 µM and the GI50 (OVCAR-5 ovarian) was 1.69 µM. The TGI (OVCAR-5 ovarian) was 3.13 µM, the GI50 (MOLT-4 leukemia) was 2.36 µM and the TGI (MOLT-4 leukemia) was 5.93 µM. It also gave a GI50 (MCF7 breast) of 0.387 µM, a TGI (MCF7 breast) of over 100 µM and a GI50 (EKVX NSCLC) of 1.82 µM. For the same molecule, the TGI (EKVX NSCLC) was 3.64 µM, the GI50 (MALME-3M melanoma) was 1.85 µM and the TGI (MALME-3M melanoma) was 3.58 µM. It also gave a GI50 (SN12C renal) of 1.77 µM and a TGI (SN12C renal) of 3.29 µM.

Work on `CNC(=O)c1c(NC(=O)c2cccc(C(F)(F)F)c2F)sc2c1CCC(=O)C2` yielded a GI50 (HL-60(TB) leukemia) of 0.275 µM, a TGI (HL-60(TB) leukemia) of over 100 µM and a GI50 (SF-268 CNS) of 0.357 µM. For the same molecule, the TGI (SF-268 CNS) was over 100 µM, the GI50 (PC-3 prostate) was 0.11 µM and the TGI (PC-3 prostate) was over 100 µM. It also gave a GI50 (SNB-75 CNS) of 0.163 µM, a TGI (SNB-75 CNS) of 0.794 µM and a GI50 (SNB-19 CNS) of 0.361 µM. For the same molecule, the TGI (SNB-19 CNS) was over 100 µM, the GI50 (RXF 393 renal) was 0.378 µM and the TGI (RXF 393 renal) was over 100 µM. The GI50 (LOX IMVI melanoma) was 0.466 µM, the TGI (LOX IMVI melanoma) was over 100 µM and the GI50 (RPMI-8226 leukemia) was 0.141 µM. The TGI (RPMI-8226 leukemia) was 0.676 µM, the GI50 (HS 578T breast) was 0.379 µM and the TGI (HS 578T breast) was over 100 µM. The GI50 (OVCAR-8 ovarian) was 0.349 µM, the TGI (OVCAR-8 ovarian) was over 100 µM and the GI50 (U251 CNS) was 0.259 µM. For the same molecule, the TGI (U251 CNS) was over 100 µM, the GI50 (IGROV1 ovarian) was 0.483 µM and the TGI (IGROV1 ovarian) was over 100 µM. It also gave a GI50 (K-562 leukemia) of 0.174 µM, a TGI (K-562 leukemia) of over 100 µM and a GI50 (BT-549 breast) of 0.406 µM. For the same molecule, the TGI (BT-549 breast) was over 100 µM, the GI50 (SR leukemia) was 0.112 µM and the TGI (SR leukemia) was over 100 µM. For the same molecule, the GI50 (CCRF-CEM leukemia) was 0.109 µM, the TGI (CCRF-CEM leukemia) was over 100 µM and the GI50 (HOP-62 NSCLC) was 0.777 µM. For the same molecule, the TGI (HOP-62 NSCLC) was over 100 µM, the GI50 (HOP-92 NSCLC) was 0.208 µM and the TGI (HOP-92 NSCLC) was 0.636 µM. It also gave a GI50 (ACHN renal) of 0.301 µM, a TGI (ACHN renal) of 1.03 µM and a GI50 (MOLT-4 leukemia) of 0.341 µM. It also gave a TGI (MOLT-4 leukemia) of over 100 µM, a GI50 (MCF7 breast) of 0.283 µM and a TGI (MCF7 breast) of over 100 µM. For the same molecule, the GI50 (SN12C renal) was 0.305 µM and the TGI (SN12C renal) was over 100 µM.
